# Test results taken from publication PMC7915902, “Preclinical Evaluation of [^18F]FACH in Healthy Mice and Piglets: An ^18F-Labeled Ligand for Imaging of Monocarboxylate Transporters with PET” (International Journal of Molecular Sciences, 2021).
# “And” between values parts separate entries of the source, which are not always exact repeats. Equal entries are not always repeated.
# How the values were obtained:
# plasma protein = test: Plasma protein binding ex vivo (ultrafiltration); assay type: in vitro ADME; details: mouse plasma, 70 min after i.v. injection
# Procedure: To measure plasma protein binding in vitro, a 1 mL portion of piglet plasma was incubated with 4.9 MBq [^18F]FACH (10 µL) on a shaker (400 rpm) for 20 min at 37 °C. The plasma protein binding was also measured ex vivo in 10 µL portions of mouse plasma from retro-orbital blood samples collected 70 min after intravenous (i.v.) injection of 3.7 MBq [^18F]FACH via a tail vein. The free and bound fractions of [^18F]FACH were separated by centrifugation at room temperature (2000 g for ten minutes, Centrifree® YM-30, Ultrafiltration Device; Merck KGaA, Darmstadt, Germany). Radioactivity was measured in aliquots of ultrafiltrate and in prefiltration plasma samples, using a Wizard 2470 γ-counter (PerkinElmer LAS, Rodgau, Germany), and the free fraction in the plasma (fp) calculated from the concentration ratio.
# MCTs = test: Ex vivo biodistribution in mice; design: species or system mouse; details: for SUV adipose tissue / SUV adrenal gland / SUV bladder / SUV blood / SUV brain / SUV caecum / SUV femur / SUV gall bladder / SUV heart / SUV kidney / SUV large intestine / SUV liver / SUV lung / SUV ovar / SUV pancreas / SUV plasma / SUV small intestine / SUV spleen / SUV stomach / SUV urine: ex vivo, control
# Procedure: Adult mice (28 to 39 g bodyweight) under isoflurane anesthesia were pre-treated by i.v. injection of saline as control (n = 3 for each time point) or 25 mg/kg α-CCA-Na (n = 3 for each time point) ten min before i.v. injection of [^18F]FACH (0.53 ± 0.06 MBq, 0.14 to 0.29 pmol/g bodyweight). The animals were euthanized by anesthesia overdose and cervical dislocation at five, 15 and 30 min after i.v. [^18F]FACH administration, and the radioactivity concentrations in harvested tissues were measured by a gamma counter (PerkinElmer), decay-corrected and normalized to the administered dose and tissue weight, and expressed as SUV in their harvested tissues. The red blood cell to plasma ratio was calculated as described by Bower et al.
# MCT1 = target: T1, MCT1 (Mus musculus, UniProt P53986); test: MCT1 specific cell uptake of [18F]FACH in 4T1 cells; assay type: cell-based; details: control (vehicle), 30 min incubation, 37 °C, pH 7.4
# T1 construct: endogenous in cells; host or cells: 4T1 cells (murine triple negative breast cancer), a gift from István Krizbai's group
# T1 sequence (P53986 1-493): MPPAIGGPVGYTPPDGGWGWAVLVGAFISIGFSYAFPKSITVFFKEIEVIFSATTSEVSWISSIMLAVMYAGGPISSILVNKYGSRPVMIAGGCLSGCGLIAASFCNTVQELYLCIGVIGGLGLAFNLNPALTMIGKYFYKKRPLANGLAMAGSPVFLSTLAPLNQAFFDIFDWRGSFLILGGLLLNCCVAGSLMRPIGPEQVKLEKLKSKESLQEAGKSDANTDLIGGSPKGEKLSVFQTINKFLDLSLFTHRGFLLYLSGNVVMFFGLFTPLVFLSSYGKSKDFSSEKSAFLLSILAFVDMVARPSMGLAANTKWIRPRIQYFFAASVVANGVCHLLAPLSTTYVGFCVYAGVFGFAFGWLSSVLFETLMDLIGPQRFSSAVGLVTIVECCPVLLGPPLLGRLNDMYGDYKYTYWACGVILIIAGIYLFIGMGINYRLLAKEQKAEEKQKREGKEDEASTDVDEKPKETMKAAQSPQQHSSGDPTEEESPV
# T1 sequence (P18572 140-389 partner limits assumed): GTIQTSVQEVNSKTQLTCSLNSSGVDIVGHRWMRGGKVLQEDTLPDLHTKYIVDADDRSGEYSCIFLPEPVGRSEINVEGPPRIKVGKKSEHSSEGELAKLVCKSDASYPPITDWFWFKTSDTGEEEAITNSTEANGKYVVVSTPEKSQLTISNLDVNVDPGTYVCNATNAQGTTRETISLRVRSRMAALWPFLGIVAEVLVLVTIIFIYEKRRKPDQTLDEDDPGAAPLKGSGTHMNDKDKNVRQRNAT
# Procedure: Afterwards, the cell culture media was replaced with 500 µL RPMI 1640 supplemented with 20 mM HEPES adjusted to pH 7.4 without FCS and incubated for 16 h at 37 °C and 5% CO2. […] After a 30 min incubation, cells were collected on ice and washed three times with phosphate buffer saline and subsequently dispersed in 500 µL 0.1 N NaOH at room temperature for 10 min. The activity of 100 µL cell solution was measured in a gamma counter and normalized to initial dose. Protein content of 10 µL portions of cell solution was measured with a BCA Kit (Pierce, Thermo Fisher Scientific GmbH) relative to a BSA standard curve, and binding was normalized to units of %ID/ mg protein.
# SMCT1 = tested on: SMCT1; design: method as in PMID 31017677; details: [14C]nicotinate uptake assay; read-out: IC50 towards SMCT1; cited from earlier work
# [1] = design: method as in PMID 32357571; details: from dosimetry studies in piglets; cited from earlier work
# [2] = Metabolism and renal excretion of [18F]FACH in mice (radio-HPLC)
# Procedure: Radio-metabolites were analyzed by analytical and semi-preparative HPLC on a JASCO LC-2000 system (JASCO Labor- und Datentechnik, Gross-Umstadt, Germany), consisting of a PU-2080 Plus pump, AS-2055 Plus auto injector (100 μL sample loop) or a manual injection valve with a 5 mL sample loop, and a UV-2070 Plus detector coupled with a gamma radioactivity HPLC detector (Gabi Star, Raytest Isotopenmessgeräte GmbH, Straubenhardt, Germany). Data analysis was performed with the Galaxie chromatography software (Agilent Technologies, Santa Clara, CA, USA). Monitoring of UV absorption was done at wavelengths of 254 and 400 nm (400 nm was detected as λmax for this class of compounds). For analytical and semi-preparative radio-HPLC analyses, Reprosil-Pur columns (C18-AQ 250 × 4.6 mm; 5 μm; and C18-AQ 150 × 4.6 mm; 10 μm; Dr. Maisch HPLC GmbH; Ammerbuch-Entringen, Germany) were used. Acetonitrile (ACN) mixed with a 20 mM aqueous solution of ammonium acetate (NH4OAc) was used as eluent.
# [^18F]FACH (33.8 ± 3.3 MBq in 200 μL isotonic saline) was injected in awake CD-1 mice (n = 4) via a tail vein. At 30 min after radiotracer administration, the mice were anaesthetised with isoflurane, and retro-orbital blood was sampled, followed by cervical dislocation and collection of released urine.
# In mouse studies, at 30 min after i.v. injection of the radiotracer [^18F]FACH, the plasma was isolated by centrifugation of a blood sample at 10,000 rpm for 2 min. […]
# Protein precipitation of plasma and tissue homogenates was performed by addition of ice-cold ACN/H2O (9:1, v/v) at a ratio of 4:1 (v/v) of the solvent mixture to each tissue sample (n = 2). […] The combined supernatants (total volume between 1 to2 mL) were concentrated at 70 °C under argon flow to a final volume of approximately 100 μL and analyzed by analytical radio-HPLC. […] To determine the percentage of the radioactivity in the supernatants compared to the total radioactivity aliquots were taken at each step and, as well as the precipitates, quantified by gamma counting.
# [3] = Metabolism and renal excretion of [18F]FACH in piglets (radio-HPLC, graphical analysis)
# Procedure: Radio-metabolites were analyzed by analytical and semi-preparative HPLC on a JASCO LC-2000 system (JASCO Labor- und Datentechnik, Gross-Umstadt, Germany), consisting of a PU-2080 Plus pump, AS-2055 Plus auto injector (100 μL sample loop) or a manual injection valve with a 5 mL sample loop, and a UV-2070 Plus detector coupled with a gamma radioactivity HPLC detector (Gabi Star, Raytest Isotopenmessgeräte GmbH, Straubenhardt, Germany). Data analysis was performed with the Galaxie chromatography software (Agilent Technologies, Santa Clara, CA, USA). […] For analytical and semi-preparative radio-HPLC analyses, Reprosil-Pur columns (C18-AQ 250 × 4.6 mm; 5 μm; and C18-AQ 150 × 4.6 mm; 10 μm; Dr. Maisch HPLC GmbH; Ammerbuch-Entringen, Germany) were used. Acetonitrile (ACN) mixed with a 20 mM aqueous solution of ammonium acetate (NH4OAc) was used as eluent.
# In corresponding piglet studies (n = 5), plasma was separated from the arterial blood samples drawn during the PET recordings at certain time points.
# In piglet studies, similar procedures were implemented for preparing samples from plasma collected at 15, 30, 45 and 60 min p.i., with the exception of collecting the urine sample only at 60 min p.i. Additionally, in order to measure the radio-metabolites in the piglet kidney, the tissue was resected at 60 min p.i. and after washing in PBS, samples of the kidney cortex and medulla were isolated and homogenized in demineralized water (2 mL/g tissue) using a borosilicate glass mortar with ten strokes of a PTFE plunger at 1000 rpm (Potter S, Homogenizer, B. Braun Biotech, Sartorius AG, Göttingen, Germany). Protein precipitation was performed by addition of ice-cold ACN/H2O at a ratio of 4:1 (v/v) of organic solvent to each tissue sample. The samples were vortexed for 3 min, placed on ice for 3 min, and the suspensions were centrifuged at 12,000 rpm at 4 °C for 5 min. For the second extraction, the precipitates were washed with 200 μL of the solvent mixture and subjected to the same procedure. The combined supernatants (total volume between 68 mL) were concentrated at 70 °C under argon flow to a final volume of approximately 2 mL and analyzed by semi-preparative RP radio-HPLC. […] The analyses were performed in gradient mode using 10% ACN/20 mM NH4OAc (aq.) as eluent A and 90% ACN/20 mM NH4OAc (aq.) as eluent B under the following conditions:
# To determine the percentage of the radioactivity in the supernatants compared to the total radioactivity aliquots were taken at each step and, as well as the precipitates, quantified by gamma counting.
# By interpolation of the measured radio-metabolite fractions from the piglet PET studies, the continuous TACs for [^18F]FACH and its radio-metabolites were calculated. Subsequently, the magnitudes of the whole body rate constant for [^18F]FACH metabolism (k0) and the elimination rate constant for the radio-metabolites (k−1) under control and pre-treated conditions were calculated as described previously [32]. Graphical analysis of the integrals of the plasma time-concentration series of PET tracers and their radio-metabolite(s) follow a linear relationship [32, 47], where the ordinate intercept is equal to the whole body fractional rate constant for the metabolism of the parent, designated k0 (min^−1). The linear regression slope corresponds to the fractional rate constant for the elimination of the radio-metabolite from circulation, designated k−1 (min^−1), which indicates the renal clearance of the radio-metabolite.
smiles,measurement,setting,value
"CCCN(CCC[18F])c1ccc(/C=C(\C#N)C(=O)O)c(OC)c1 [[^18F]FACH, (E)-2-cyano-3-{4-[(3-[^18F]fluoropropyl)(propyl)amino]-2-methoxyphenyl}acrylic acid]",free plasma fraction (fp),plasma protein,0.07
same,red blood cell to plasma ratio,MCTs; biodistribution studies,< 0.1
same,SUV adipose tissue,MCTs; 5 min p.i.,0.12
same,SUV adrenal gland,MCTs; 5 min p.i.,0.80
same,SUV bladder,MCTs; 5 min p.i.,0.17
same,SUV blood,MCTs; 5 min p.i.,1.85 ± 0.29 and 1.85
same,SUV brain,MCTs; 5 min p.i.,0.08
same,SUV caecum,MCTs; 5 min p.i.,0.18
same,SUV femur,MCTs; 5 min p.i.,0.17
same,SUV gall bladder,MCTs; 5 min p.i.,4.61
same,SUV heart,MCTs; 5 min p.i.,0.74
same,SUV kidney,MCTs; 5 min p.i.,7.97
same,SUV large intestine,MCTs; 5 min p.i.,0.24
same,SUV liver,MCTs; 5 min p.i.,9.65
same,SUV lung,MCTs; 5 min p.i.,0.89 ± 0.12 and 0.89
same,SUV ovar,MCTs; 5 min p.i.,0.38
same,SUV pancreas,MCTs; 5 min p.i.,0.51
same,SUV plasma,MCTs; 5 min p.i.,3.77 ± 0.57 and 3.77
same,SUV small intestine,MCTs; 5 min p.i.,0.56
same,SUV spleen,MCTs; 5 min p.i.,0.37
same,SUV stomach,MCTs; 5 min p.i.,0.16
same,SUV urine,MCTs; 5 min p.i.,0.82
same,SUV adipose tissue,MCTs; 15 min p.i.,0.18
same,SUV adrenal gland,MCTs; 15 min p.i.,0.94
same,SUV bladder,MCTs; 15 min p.i.,0.35
same,SUV blood,MCTs; 15 min p.i.,0.91
same,SUV brain,MCTs; 15 min p.i.,0.04
same,SUV caecum,MCTs; 15 min p.i.,0.15
same,SUV femur,MCTs; 15 min p.i.,0.12
same,SUV gall bladder,MCTs; 15 min p.i.,5.36
same,SUV heart,MCTs; 15 min p.i.,0.53
same,SUV kidney,MCTs; 15 min p.i.,12.81
same,SUV large intestine,MCTs; 15 min p.i.,0.19
same,SUV liver,MCTs; 15 min p.i.,10.65
same,SUV lung,MCTs; 15 min p.i.,0.59
same,SUV ovar,MCTs; 15 min p.i.,0.33
same,SUV pancreas,MCTs; 15 min p.i.,0.44
same,SUV plasma,MCTs; 15 min p.i.,1.76
same,SUV small intestine,MCTs; 15 min p.i.,0.66
same,SUV spleen,MCTs; 15 min p.i.,0.21
same,SUV stomach,MCTs; 15 min p.i.,0.13
same,SUV urine,MCTs; 15 min p.i.,4.32
same,SUV adipose tissue,MCTs; 30 min p.i.,0.15
same,SUV adrenal gland,MCTs; 30 min p.i.,0.51
same,SUV bladder,MCTs; 30 min p.i.,0.31
same,SUV blood,MCTs; 30 min p.i.,0.82 ± 0.05 and 0.82
same,SUV brain,MCTs; 30 min p.i.,0.04
same,SUV caecum,MCTs; 30 min p.i.,0.19
same,SUV femur,MCTs; 30 min p.i.,0.15
same,SUV gall bladder,MCTs; 30 min p.i.,10.96
same,SUV heart,MCTs; 30 min p.i.,0.58
same,SUV kidney,MCTs; 30 min p.i.,15.97 ± 1.07 and 15.97
same,SUV large intestine,MCTs; 30 min p.i.,0.26
same,SUV liver,MCTs; 30 min p.i.,8.48
same,SUV lung,MCTs; 30 min p.i.,0.52 ± 0.02 and 0.52
same,SUV ovar,MCTs; 30 min p.i.,0.32
same,SUV pancreas,MCTs; 30 min p.i.,0.38
same,SUV plasma,MCTs; 30 min p.i.,1.69 ± 0.17 and 1.69
same,SUV small intestine,MCTs; 30 min p.i.,1.11
same,SUV spleen,MCTs; 30 min p.i.,0.22
same,SUV stomach,MCTs; 30 min p.i.,0.20
same,SUV urine,MCTs; 30 min p.i.,4.57
same,cell-associated radioactivity,MCT1,4.7 %ID/mg protein
same,IC50,SMCT1,78 µM
same,predicted effective radiation dose for humans,[1],about 2 mSv/100 MBq
same,radioactivity in bladder/urine (renal excretion),"[2]; mice, 60 min p.i., control",0.51 ± 0.39 %ID
same,intact [18F]FACH in plasma,"[2]; mouse plasma, 30 min p.i.",More than 99%
same,[18F]FACH (parent) in urine,[2]; mouse urine,< 5%
same,apparent rate constant (k0) for [18F]FACH metabolism,"[3]; piglets, control",0.87 ± 0.34 min⁻¹
same,parent radiotracer fraction in plasma,"[3]; piglets, control, 60 min",8.8 ± 4.8%
same,parent radiotracer fraction in plasma,"[3]; piglets, control, five min",42 ± 13%
same,intact radiotracer in urine,"[3]; piglets, urine 60 min p.i.",no intact radiotracer was detectable
same,parent fraction of [18F]FACH in kidney cortex,"[3]; two control piglets, 60 min p.i.",50.5% and 48.0%
